Experiments:
[1] = test system: drug sensitive L1210 cells; test: cell-surface Fas expression by flow cytometry, L1210; format: cell-based
Description: (§1) Cell Surface Staining. Non-permeabilized cells were stained with antibodies to the cell surface receptors Fas (CD95) (Pharmingen) or with antibodies to uncoupling proteins (anti-UCP2 antibody) (Alpha Diagnostic International). Antibodies for both the isotype control and actual stain were added to the cell suspension, mixed, and then placed on ice for and incubation of 25 minutes in the dark. Subsequently the cells were centrifuged at 300×g for 5 minutes and the supernatant removed. The cells were washed one time with 100 μL of PBS/2.5% FBS and then transferred into flow cyotmetric tubes containing 500 μL of PBS/2.5% FBS for analysis.
Geometric Mean Fluorescence. When analyzing data on Cell Quest software, a geometric mean value will be given for each histogram plotted. Once the stained sample was plotted against the control (isotype or unstained), geometric mean fluorescence values were obtained for both histogram peaks. The stained control sample value was subtracted from sample to identify the actual fluorescence of the stained sample over that of the control.
Drug sensitive L1210 cells and drug resistant L1210/DDP cells were cultured with etomoxir for 24 hours (Tx indicates treatment with etomoxir). The level of cell-surface Fas was determined using fluorochrome conjugated anti-Fas antibodies and flow cytometry. The Fas levels are measured relative to a control for staining artifacts. […]

[2] = test system: B16F1 melanoma cells; test: mitochondrial membrane potential (Mitotracker Red) in B16F1 melanoma cells; format: cell-based, mouse; details: B16F1, 48 hours, FIG. 20
Description: Metabolic Activity Assay. Cells were prepared as previously described. The specific metabolic dye was added and mixed into the cell suspension. This plate was then placed into the 37° incubator for a 20-minute incubation. After incubation, the cells were centrifuged at 300×g for 5 minutes, and the supernatant was removed. The cells were then washed once with PBS/2.5% FBS and transferred into flow cytometric tubes containing 500 μL of PBS/2.5% FBS for analysis.
MitoTracker Red CM-H2XROS (Molecular Probes). One vial of MitoTracker Red provides 10 tests and contains 50 μg. This is unstable and can't be stored. Therefore, when each vial was opened, 43 μL of Dimethysulfoxide (DMSO) were added. […]
B16F1 melanoma cells were cultured at a concentration of 0.5 to 1 million cells per ml. Cells were harvested and analyzed by flow cytometry. […] Five thousand cells were assessed for forward scatter (FS), as a function of cell size, versus side scatter (SS), as a function of cellular granularity. […]
B16F1 melanoma cells of Example 12 were untreated or treated with etomoxir at the indicated concentrations for 48 hours. Cells were harvested, stained with Mitotracker Red (Molecular Probes) as described in Materials and Methods, and analyzed by flow cytometry. The value of Mitotracker Red was then calculated as described in Materials and Methods.

[3] = test system: human leukemia HL60 cells; test: DCFDA staining, HL60; format: cell-based; details: HL60, 24 hours of incubation, FIG. 14
Description: (§2) Flow Cytometry. Cells were harvested, counted, and resuspended at 10^6 cells/100 μl of PBS containing 2.5% fetal calf serum in preparation for flow cytometric analysis. Cells were stained for intracellular H202 using 6-carboxy-2′,7′-dichlorodihydrofluorescein diacetate (DCF-DA, Molecular Probes, Eugene, Oreg.). Briefly, cells were incubated at 37° with 1 mM DCF-DA for 20 minutes, washed twice in PBS containing 2.5% fetal calf serum and analyzed flow cytometrically. Mitochondrial membrane potential was assessed using Mitotracker Red (CM-H2XROS, Molecular Probes, Eugene, Oreg.). The cells were resuspended in PBS containing 2.5% fetal calf serum containing a final concentration of 0.5 micromolar Mitotracker dye. The cells were incubated at 37° for 20 minutes, washed twice in PBS containing 2.5% fetal calf serum and analyzed flow cytometrically. Data were acquired on a Coulter Elite Epics or Excel flow cytometer (Coulter, Hialeah, Fla.) and analyzed with CellQuest software, (Becton Dickinson, San Jose, Calif.). […] Each sample population was classified for cell size (forward scatter) and complexity (side scatter), gated on a population of interest and evaluated using 5,000 cells. […]
The effects of etomoxir on human leukemia HL60 cells was determined. […]

[4] = test system: human leukemia RU937 cells; test: mitochondrial membrane potential (MitoTracker), RU937; format: cell-based; details: RU937, 24 hours of incubation, FIG. 13
Description: as §2
The effects of etomoxir on human leukemia RU937 cells was determined. […]

[5] = test system: A-204 human rhabdomyosarcoma cells; test: cell surface UCP2 expression on A-204 cells; format: cell-based; details: A-204, 24, 48, & 72 hours, FIG. 26
Description: as §1
A204 human rhabdomyosarcoma cells were cultured at a concentration of 0.5 to 1 million cells per ml. Cells were untreated or treated with etomoxir at concentrations indicated in FIG. 24 for 24, 48, & 72 hours. Cells were harvested and analyzed by flow cytometry. Dot plots are shown in FIG. 24 as functions of live versus dead cells. […] Five thousand cells were assessed for forward scatter (FS), as a function of cell size, versus side scatter (SS), as a function of cellular granularity. […]
Cells were untreated or treated with etomoxir at the concentration indicated in FIG. 26 at the indicated concentration for 24, 48, & 72 hours. Cells were harvested, stained with fluorochrome conjugated with anti-UCP2 antibody and analyzed by flow cytometry.

CCOC(=O)C1(CCCCCCOc2ccc(Cl)cc2)CO1 (stereo not drawn) [etomoxir, 2-(6-(4-chlorophenoxy)-hexyl)-oxirane-2-carboxylic acid ethyl ester]
cell-surface Fas expression ([1]; L1210, cultured with etomoxir for 24 hours): significant increases in cell surface Fas
Fas expression, combination with methotrexate ([1]; L1210, etomoxir with methotrexate, FIG. 8): increases the methotrexate-induced increases in Fas
mitochondrial membrane potential as measured by Mitotracker Red [2]: increase in mitochondrial membrane potential
reactive oxygen intermediates, DCFDA staining [3]: increases in reactive oxygen intermediates
mitochondrial membrane potential (MitoTracker) [4]: increased the levels of mitochondrial membrane potential
cell surface UCP2 expression in the live cells [5]: time dependent “fold” increases
